# Measured values published in ChEMBL document CHEMBL3885881, “DrugMatrix”.
# Species on record: Rattus norvegicus
# Assay: DrugMatrix - Regimen: Daily Repeat
# Type: toxicity, organism-based, Sprague-Dawley
# Parameters: regimen Daily Repeat, gender Male, age 6-8 weeks
# Settings: in vivo, po, 5 mg/kg, route oral GAVAGE, dose level High, vehicle .5 % CMC; for ABSOLUTE BASOPHIL / ABSOLUTE EOSINOPHIL / ABSOLUTE LYMPHOCYTE / ABSOLUTE MONOCYTE / ABSOLUTE SEGMENTED NEUTROPHIL / BASOPHIL / EOSINOPHIL / ERYTHROCYTE COUNT / HEMATOCRIT / HEMOGLOBIN / LEUKOCYTE COUNT / LYMPHOCYTE / MEAN CORPUSCULAR HEMOGLOBIN / MEAN CORPUSCULAR HEMOGLOBIN CONCENTRATION / MEAN CORPUSCULAR VOLUME / MONOCYTE / NEUTROPHIL / NUCLEATED RED BLOOD CELLS / PLATELET COUNT: tissue Blood; for ALANINE AMINOTRANSFERASE / ALBUMIN / ALKALINE PHOSPHATASE / ASPARTATE AMINOTRANSFERASE / BLOOD UREA NITROGEN / CARBON DIOXIDE / CHLORIDE / CHOLESTEROL / CREATINE PHOSPHOKINASE / CREATININE / GLUCOSE / LACTATE DEHYDROGENASE / LIPASE / PHOSPHORUS / POTASSIUM / SODIUM / TOTAL BILIRUBIN / TOTAL PROTEIN / URIC ACID: tissue Plasma
smiles,measurement,setting,value
Nc1c(CC(=O)O)cccc1C(=O)c1ccc(Br)cc1 [BROMFENAC],ABSOLUTE BASOPHIL,"72 h, time 3 day",0 CELLS/uL
same,ABSOLUTE EOSINOPHIL,"72 h, time 3 day",0 CELLS/uL
same,ABSOLUTE LYMPHOCYTE,"72 h, time 3 day",5201.4 CELLS/uL
same,ABSOLUTE MONOCYTE,"72 h, time 3 day",116 CELLS/uL
same,ABSOLUTE SEGMENTED NEUTROPHIL,"72 h, time 3 day",1982.6 CELLS/uL
same,BASOPHIL,"72 h, time 3 day",0%
same,EOSINOPHIL,"72 h, time 3 day",0%
same,ERYTHROCYTE COUNT,"72 h, time 3 day",4.97 x10E6/uL
same,HEMATOCRIT,"72 h, time 3 day",30.78%
same,HEMOGLOBIN,"72 h, time 3 day",11.8 G/DL
same,LEUKOCYTE COUNT,"72 h, time 3 day",7.3 x10E3/uL
same,LYMPHOCYTE,"72 h, time 3 day",72.6%
same,MEAN CORPUSCULAR HEMOGLOBIN,"72 h, time 3 day",23.92 pg
same,MEAN CORPUSCULAR HEMOGLOBIN CONCENTRATION,"72 h, time 3 day",38.52 G/DL
same,MEAN CORPUSCULAR VOLUME,"72 h, time 3 day",62.06 fL
same,MONOCYTE,"72 h, time 3 day",1.8%
same,NEUTROPHIL,"72 h, time 3 day",25.6%
same,NUCLEATED RED BLOOD CELLS,"72 h, time 3 day",0 /100WBC
same,PLATELET COUNT,"72 h, time 3 day",593.4 x10E3/uL
same,ALANINE AMINOTRANSFERASE,"72 h, time 3 day",100 u/L
same,ALBUMIN,"72 h, time 3 day",3.64 G/DL
same,ALKALINE PHOSPHATASE,"72 h, time 3 day",337.8 u/L
same,ASPARTATE AMINOTRANSFERASE,"72 h, time 3 day",193.2 u/L
same,BLOOD UREA NITROGEN,"72 h, time 3 day",10.2 mg/dL
same,CARBON DIOXIDE,"72 h, time 3 day",31.2 mmol/L
same,CHLORIDE,"72 h, time 3 day",103.4 MEQ/L
same,CHOLESTEROL,"72 h, time 3 day",84.6 mg/dL
same,CREATINE PHOSPHOKINASE,"72 h, time 3 day",304.4 u/L
same,CREATININE,"72 h, time 3 day",0.19 mg/dL
same,GLUCOSE,"72 h, time 3 day",147.4 mg/dL
same,LACTATE DEHYDROGENASE,"72 h, time 3 day",116.6 u/L
same,LIPASE,"72 h, time 3 day",8.4 u/L
same,PHOSPHORUS,"72 h, time 3 day",11.14 mg/dL
same,POTASSIUM,"72 h, time 3 day",5.44 MEQ/L
same,SODIUM,"72 h, time 3 day",146.66 MEQ/L
same,TOTAL BILIRUBIN,"72 h, time 3 day",0.14 mg/dL
same,TOTAL PROTEIN,"72 h, time 3 day",5.36 G/DL
same,URIC ACID,"72 h, time 3 day",0.76 mg/dL
same,ABSOLUTE BASOPHIL,"120 h, time 5 day",0 CELLS/uL
same,ABSOLUTE EOSINOPHIL,"120 h, time 5 day",23.5 CELLS/uL
same,ABSOLUTE LYMPHOCYTE,"120 h, time 5 day",8259.25 CELLS/uL
same,ABSOLUTE MONOCYTE,"120 h, time 5 day",191.75 CELLS/uL
same,ABSOLUTE SEGMENTED NEUTROPHIL,"120 h, time 5 day",1625.5 CELLS/uL
same,BASOPHIL,"120 h, time 5 day",0%
same,EOSINOPHIL,"120 h, time 5 day",0.25%
same,ERYTHROCYTE COUNT,"120 h, time 5 day",4.46 x10E6/uL
same,HEMATOCRIT,"120 h, time 5 day",28.57%
same,HEMOGLOBIN,"120 h, time 5 day",11 G/DL
same,LEUKOCYTE COUNT,"120 h, time 5 day",10.1 x10E3/uL
same,LYMPHOCYTE,"120 h, time 5 day",81.75%
same,MEAN CORPUSCULAR HEMOGLOBIN,"120 h, time 5 day",24.82 pg
same,MEAN CORPUSCULAR HEMOGLOBIN CONCENTRATION,"120 h, time 5 day",38.55 G/DL
same,MEAN CORPUSCULAR VOLUME,"120 h, time 5 day",64.3 fL
same,MONOCYTE,"120 h, time 5 day",2%
same,NEUTROPHIL,"120 h, time 5 day",16%
same,NUCLEATED RED BLOOD CELLS,"120 h, time 5 day",0.5 /100WBC
same,PLATELET COUNT,"120 h, time 5 day",1087.25 x10E3/uL
same,ALANINE AMINOTRANSFERASE,"120 h, time 5 day",38.5 u/L
same,ALBUMIN,"120 h, time 5 day",3.65 G/DL
same,ALKALINE PHOSPHATASE,"120 h, time 5 day",255.67 u/L
same,ASPARTATE AMINOTRANSFERASE,"120 h, time 5 day",60 u/L
same,BLOOD UREA NITROGEN,"120 h, time 5 day",13.75 mg/dL
same,CARBON DIOXIDE,"120 h, time 5 day",31.5 mmol/L
same,CHLORIDE,"120 h, time 5 day",101.67 MEQ/L
same,CHOLESTEROL,"120 h, time 5 day",80.25 mg/dL
same,CREATINE PHOSPHOKINASE,"120 h, time 5 day",189 u/L
same,CREATININE,"120 h, time 5 day",0.15 mg/dL
same,GLUCOSE,"120 h, time 5 day",141.25 mg/dL
same,LACTATE DEHYDROGENASE,"120 h, time 5 day",82.25 u/L
same,LIPASE,"120 h, time 5 day",8.25 u/L
same,PHOSPHORUS,"120 h, time 5 day",10.7 mg/dL
same,POTASSIUM,"120 h, time 5 day",5.87 MEQ/L
same,SODIUM,"120 h, time 5 day",145.27 MEQ/L
same,TOTAL BILIRUBIN,"120 h, time 5 day",0.13 mg/dL
same,TOTAL PROTEIN,"120 h, time 5 day",5.8 G/DL
same,URIC ACID,"120 h, time 5 day",0.57 mg/dL
